Assay results as given in US20020026053A1, “Novel 3-(substituted) -2- indolinones compounds and use thereof as inhibitors of protein kinase activity” (priority 1997, published 2002).

Each compound was assayed on FLK-1 receptor (assay: FLK-1 Assay (cellular/catalytic ELISA, VEGF-stimulated phosphotyrosine)). Details: protocol P.110.
Type: cell-based
Parameters: concentration or dose not given beside the values
How it was run: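 NIH3T3 C7#3 cells engineered to express Flk-1 were serum-starved overnight (0.1% FBS), then exposed to compound for 2 h at 37 °C (final dilution 1:200, 0.5% DMSO) before VEGF stimulation. Lysates captured on anti-FLK-1 antiserum plates; phosphotyrosine detected by UB40 antibody/POD-ABTS ELISA versus untreated controls.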

| SMILES | Flk Kinase % Inhibition (P.110) |
| --- | --- |
| COc1ccc(C=C2C(=O)Nc3c(Br)cc(Br)c(C)c32)cc1O [10738/H04] | −17.9% |
| Cc1c(Br)cc(Br)c2c1C(=Cc1cc(O)ccc1[N+](=O)[O-])C(=O)N2 [10738/H05] | −17.9% |
| Cc1c(Br)cc(Br)c2c1C(=Cc1cccc(O)c1O)C(=O)N2 [10738/H06] | −44.8% |
